Measurements published in ChEMBL document CHEMBL1201862, “PubChem BioAssay data set” (2004).
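48-hour exposure; five concentrations; linearly interpolated endpoints. Here, GI50 denotes the concentration required for 50% inhibition of growth.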 The source made the active and inactive calls. No stated cut-off is given here; in the data, active = GI50 up to about 1.1 µM and inactive = higher.

Assays:
Experiment in all cases: growth of human tumour cells (NCI), 48 h
M14 = test system: M14
HCT-15 = test system: HCT-15
OVCAR-5 = test system: OVCAR-5
DMS-273 = test system: DMS-273
SF-539 = test system: SF-539
XF498 = test system: XF498
HOP-18 = test system: HOP-18
K562 = test system: K562
ACHN = test system: ACHN
NCI-H460 = test system: NCI-H460
A549 = test system: A549
EKVX = test system: EKVX
SF-268 = test system: SF-268
MOLT-4 = test system: MOLT-4
HCC 2998 = test system: HCC 2998
IGROV-1 = test system: IGROV-1
SW-620 = test system: SW-620
HOP-62 = test system: HOP-62
SK-MEL-5 = test system: SK-MEL-5
CCRF-CEM = test system: CCRF-CEM
A498 = test system: A498
SK-MEL-2 = test system: SK-MEL-2
KM-20L2 = test system: KM-20L2
RXF 393 = test system: RXF 393
UACC-257 = test system: UACC-257
HL-60 = test system: HL-60
DLD-1 = test system: DLD-1
U-251 = test system: U-251
Malme-3M = test system: Malme-3M
LXFL 529 = test system: LXFL 529
NCI-H226 = test system: NCI-H226
DMS-114 = test system: DMS-114
M19-MEL = test system: M19-MEL
HOP-92 = test system: HOP-92
HCT-116 = test system: HCT-116
786-0 = test system: 786-0
OVCAR-8 = test system: OVCAR-8
CAKI-1 = test system: CAKI-1
COLO 205 = test system: COLO 205
UACC-62 = test system: UACC-62
SF-295 = test system: SF-295
SNB-19 = test system: SNB-19
SNB-75 = test system: SNB-75
SK-OV-3 = test system: SK-OV-3
SNB-78 = test system: SNB-78
SK-MEL-28 = test system: SK-MEL-28
OVCAR-3 = test system: OVCAR-3
HT-29 = test system: HT-29
KM12 = test system: KM12
UO-31 = test system: UO-31
TK-10 = test system: TK-10
NCI-H23 = test system: NCI-H23
SN12C = test system: SN12C
SR = test system: SR
OVCAR-4 = test system: OVCAR-4
LOX IMVI = test system: LOX IMVI
RPMI-8226 = test system: RPMI-8226
NCI-H522 = test system: NCI-H522

Measured: GI50

Cc1cc(C)nc(NS(=O)(=O)c2ccc(Nc3c4ccccc4nc4c(C(=O)N5CCN(CCO)CC5)cccc34)cc2)n1
> 100 µM: HCT-15
inactive: M14 > 100 µM | OVCAR-5 > 100 µM | DMS-273 > 100 µM | SF-539 > 100 µM | XF498 > 100 µM | HOP-18 > 100 µM | K562 > 100 µM | ACHN > 100 µM | NCI-H460 > 100 µM | A549 > 100 µM | EKVX > 100 µM | SF-268 > 100 µM | MOLT-4 > 100 µM | HCC 2998 > 100 µM | IGROV-1 > 100 µM | SW-620 > 100 µM | HOP-62 > 100 µM | SK-MEL-5 > 100 µM | CCRF-CEM > 100 µM | A498 > 100 µM | SK-MEL-2 > 100 µM | KM-20L2 > 100 µM | RXF 393 > 100 µM | UACC-257 > 100 µM | HL-60 > 100 µM | DLD-1 > 100 µM | U-251 > 100 µM | Malme-3M > 100 µM | LXFL 529 > 100 µM | NCI-H226 > 100 µM | DMS-114 > 100 µM | M19-MEL > 100 µM | HOP-92 > 100 µM | HCT-116 > 100 µM | 786-0 > 100 µM | OVCAR-8 > 100 µM | CAKI-1 > 100 µM | COLO 205 > 100 µM | UACC-62 > 100 µM | SF-295 > 100 µM | SNB-19 > 100 µM | SNB-75 95.7 µM | SK-OV-3 > 100 µM | SNB-78 > 100 µM | SK-MEL-28 > 100 µM | OVCAR-3 > 100 µM | HT-29 > 100 µM | KM12 > 100 µM | UO-31 > 100 µM | TK-10 > 100 µM | NCI-H23 > 100 µM | SN12C > 100 µM | SR > 100 µM | OVCAR-4 > 100 µM | LOX IMVI > 100 µM

CCCOP1(=O)C=CC(Cl)=C(C)C1 (centres undefined)
inactive: M14 33 µM | RPMI-8226 22.3 µM | OVCAR-5 20.7 µM | SF-539 > 46 µM | XF498 23.6 µM | HOP-18 50.4 µM | K562 12 µM | ACHN 24.9 µM | NCI-H460 50.7 µM | A549 > 54.3 µM | EKVX > 51.5 µM | SF-268 46.6 µM | MOLT-4 10.9 µM | HCC 2998 > 63.1 µM | IGROV-1 97.7 µM | SW-620 19.3 µM | HOP-62 > 100 µM | SK-MEL-5 45.6 µM | CCRF-CEM 11.9 µM | A498 82.8 µM | SK-MEL-2 23.9 µM | KM-20L2 48.1 µM | RXF 393 16 µM | UACC-257 26.9 µM | HL-60 7.53 µM | DLD-1 20.6 µM | U-251 40.1 µM | Malme-3M 21 µM | LXFL 529 23.7 µM | DMS-114 25.4 µM | HOP-92 33.1 µM | HCT-116 17.1 µM | 786-0 27.7 µM | OVCAR-8 21.1 µM | CAKI-1 32.4 µM | COLO 205 18.4 µM | UACC-62 19.1 µM | SF-295 45.8 µM | SNB-19 > 70 µM | SNB-75 55.8 µM | SK-OV-3 > 100 µM | SNB-78 53.1 µM | SK-MEL-28 19.3 µM | OVCAR-3 27.4 µM | HT-29 55.3 µM | KM12 20.8 µM | UO-31 81.7 µM | NCI-H522 15.9 µM | TK-10 42.4 µM | NCI-H23 30.8 µM | SN12C 69.5 µM | OVCAR-4 36.6 µM | LOX IMVI 32.3 µM
16.8 µM: HCT-15

Cc1c(O)c(=O)ccn1CCO
> 100 µM: HCT-15
inactive: M14 > 100 µM | RPMI-8226 > 100 µM | OVCAR-5 > 100 µM | DMS-273 > 10 µM | XF498 > 100 µM | HOP-18 > 100 µM | K562 > 100 µM | ACHN > 100 µM | NCI-H460 > 100 µM | A549 > 100 µM | EKVX > 100 µM | SF-268 > 100 µM | MOLT-4 > 100 µM | SW-620 > 100 µM | HOP-62 > 100 µM | SK-MEL-5 > 100 µM | CCRF-CEM > 100 µM | A498 > 100 µM | SK-MEL-2 > 100 µM | KM-20L2 > 100 µM | RXF 393 > 100 µM | UACC-257 > 100 µM | HL-60 > 100 µM | DLD-1 > 100 µM | U-251 > 100 µM | Malme-3M > 100 µM | LXFL 529 > 100 µM | NCI-H226 > 100 µM | DMS-114 > 100 µM | M19-MEL > 100 µM | HOP-92 > 100 µM | HCT-116 > 100 µM | 786-0 > 100 µM | OVCAR-8 > 100 µM | CAKI-1 > 100 µM | COLO 205 > 100 µM | UACC-62 > 100 µM | SF-295 > 100 µM | SNB-19 > 100 µM | SNB-75 > 100 µM | SK-OV-3 > 100 µM | SNB-78 > 100 µM | SK-MEL-28 > 100 µM | OVCAR-3 > 100 µM | HT-29 > 100 µM | KM12 > 100 µM | UO-31 > 100 µM | NCI-H522 > 100 µM | TK-10 > 100 µM | SN12C > 100 µM | SR > 100 µM | OVCAR-4 > 100 µM | LOX IMVI > 100 µM
